Like-named read-outs stand apart in the source and are kept apart here.
Tested on: Influenza A/WSN/33/1
Format: cell-based

CCOC(=O)C1=C[C@@H](OC(CC)CC)[C@H](NC(C)=O)[C@@H](N)C1 [oseltamivir, (3R,4R,5S)-4-acetylamino-5-amino-3(1-ethylpropoxy)-1-cyclohexene-1-carboxylic acid ethyl ester]
reduced influenza titers compared to untreated (air) control (1 nM oseltamivir in basolateral media): 5 fold

NC(=O)c1ncn([C@@H]2O[C@H](CO)[C@@H](O)[C@H]2O)n1 [ribavirin]
reduced influenza titers compared to untreated (air) control (10 nM ribavirin in basolateral media, p>0.05): 6.3 fold

CC(N)C12CC3CC(CC(C3)C1)C2 (stereo not drawn) [rimantadine]
reduced influenza titers compared to untreated (air) control (1 nM rimantadine in basolateral media, p>0.05): 9.6 fold
reduced viral titers compared to the untreated control (10 nM rimantadine in basolateral media, p<0.001): 185 fold

CC(=O)NC1[C@@H](NC(=N)N)C=C(C(=O)O)O[C@H]1[C@H](O)[C@H](O)CO (stereo partly drawn) [zanamivir, 5-(acetylamino)-4-[(aminoiminomethyl)-amino]-2,6-anhydro-3,4,5-trideoxy-D-glycero-D-galacto-non-2-enoic acid]
reduced viral titers compared to the untreated control (0.1 nM zanamivir alone): 40 fold
viral infection, dose response ([…], p<0.01 vs untreated (Air) control): reduced viral infection in a dose responsive manner
